Laboratory results: US12258611B2, “Device for detecting tomato pathogenic fungus and detection method using the same” (Panasonic Intellectual Property Management Co., Ltd., priority 2018, dated 2025)

Experiments:
Assay in all cases: hyphae penetrating the artificial cell wall, fludioxonil in culture solution
Type in all cases: cell-based
[1] = system: Botrytis cinerea; conditions: 25° C., 72 hours
Description: Botrytis cinerea, which is one of tomato pathogens and is a pathogenic fungus that causes tomato gray mold, was inoculated onto a potato dextrose agar medium (Difco™ Potato Dextrose Agar). Subsequently, the medium was left static at a temperature of 25° C. for a week. The Botrytis cinerea was given by Associate Professor Shimizu, Faculty of Applied Biological Sciences, Gifu University. Subsequently, the potato dextrose agar medium having cultured Botrytis cinerea with sufficient hyphal growth was left under irradiation with black light for four days or longer, and subsequently left in a room-temperature environment for two weeks or longer, to promote sporulation. To the resultant potato dextrose agar medium having cultured Botrytis cinerea, several milliliters of sterile pure water was dropped, and the surface of the hyphae was rubbed with, for example, a platinum loop or a brush, to obtain a disintegrated hypha-spore mixed suspension.
(§1) The above-described container having, at the bottom surface, the artificial cell wall including the polyethylene terephthalate film (substrate) having, on its back surface, the cellulose membrane was placed on a culture medium container (culture-solution storage), to provide a device for detecting a tomato pathogenic fungus. The culture medium container was a 24-well flat-bottom culture plate (Corning Incorporated, trade name: 24 Well Cell Culture Cluster Flat Bottom). […]
(§2) Subsequently, sterile purified water was added such that the total volume with such a disintegrated hypha-spore mixed suspension became 200 μL. The tomato-pathogenic-fungus selection method device in which the seven species of fungi were added was left to stand at a temperature of 25° C. for 72 hours, and the number of hyphae penetrating the artificial cell wall and observed at the back surface was visually counted using an optical microscope. […]

[2] = system: Penicillium olsonii; conditions: Comparative Example 1, fludioxonil 133 mg/L, 25° C., 72 hours
Source text: (§3) Biscogniauxia maritima, Penicillium olsonii, Phoma multirostrata, and Trichoderma asperellum, which are not tomato pathogens but were present on tomato leaves, were sampled from the tomato leaves, isolated, and then inoculated onto a potato dextrose agar medium. The tomato plants serving as the isolation sources were sampled at a plurality of sites. The isolation method was as follows: into a clean resin container or resin bag, several tomato leaves sampled were placed together with a fungus collection solution composed of physiological saline containing 0.1% surfactant Tween 80 (SIGMA-ALDRICH), and stirred for 1 minute to transfer the fungi adhering to the leaves to the fungus collection solution; this fungus collection solution was diluted, and applied to a potato dextrose agar medium containing 100 mg/L of streptomycin sulfate (Wako) by the spread plate culture technique; subsequently, the medium was incubated at 25° C. for several days and, from the produced fungus colonies, the isolation was performed. We requested Tama Laboratory, (general incorporated association) Japan Food Research Laboratories to perform identification. The above-described Biscogniauxia maritima, Penicillium olsonii, Phoma multirostrata, and Trichoderma asperellum isolated and then inoculated onto the potato dextrose agar medium were left static at a temperature of 25° C. for a week. Subsequently, to the potato dextrose agar medium on which the four species of fungi were cultured with sufficient hyphal growth or sufficient sporulation, several milliliters of sterile pure water was dropped; the surface of the hyphae was rubbed with, for example, a platinum loop or a brush, to obtain a disintegrated hypha-spore mixed suspension.
as §1, with “fungus.” for “fungus. The culture medium container was a 24-well flat-bottom culture plate (Corning Incorporated, trade name: 24 Well Cell Culture Cluster Flat Bottom).”

[3] = system: Phoma multirostrata; conditions: Comparative Example 1, fludioxonil 133 mg/L, 25° C., 72 hours
Source text: as §3
as §1, with “fungus.” for “fungus. The culture medium container was a 24-well flat-bottom culture plate (Corning Incorporated, trade name: 24 Well Cell Culture Cluster Flat Bottom).”

[4] = system: Biscogniauxia maritima; conditions: Comparative Example 1, fludioxonil 133 mg/L, 25° C., 72 hours
Source text: as §3
as §1, with “fungus.” for “fungus. The culture medium container was a 24-well flat-bottom culture plate (Corning Incorporated, trade name: 24 Well Cell Culture Cluster Flat Bottom).”

[5] = system: Passalora fulva; conditions: 25° C., 72 hours
Description: Passalora fulva, which is one of tomato pathogens and is a pathogenic fungus that causes tomato leaf mold, was inoculated onto a potato dextrose agar medium. Subsequently, the medium was left static at a temperature of 23° C. for one to two weeks. Passalora fulva was distributed by The Genetic Resources Center, The National Agriculture and Food Research Organization (MAFF No. 726744). Subsequently, to the potato dextrose agar medium having cultured Passalora fulva with sufficient hyphal growth, several milliliters of sterile pure water was dropped, and the surface of the hyphae was rubbed with, for example, a platinum loop or a brush, to obtain a disintegrated hypha-spore mixed suspension.
as §1, with “Bottom). Between the culture medium container and the artificial-cell-wall-formed container, 600 μL of a liquid culture medium (culture solution) was charged so as to be in contact with the back surface of the artificial-cell-wall-formed container.” for “Bottom).”
as §2

[6] = system: Pseudocercospora fuligena; conditions: 25° C., 72 hours
Description: Pseudocercospora fuligena, which is one of tomato pathogens and is a pathogenic fungus that causes tomato Cercospora leaf mold, was inoculated onto a potato dextrose agar medium. Subsequently, the medium was left static at a temperature of 28° C. for a week. Pseudocercospora fuligena was distributed by The Genetic Resources Center, The National Agriculture and Food Research Organization (MAFF No. 306728). Subsequently, hyphae of Pseudocercospora fuligena were transferred from the potato dextrose agar medium to a burdock root powder agar medium, further left static for one to two weeks at a temperature of 28° C.; after hyphae sufficiently grew again, the surface of the hyphae was subjected to a mechanical stress such as rubbing with, for example, a platinum loop or a brush; subsequently, the medium was left under irradiation with black light for four days or longer, subsequently left in a room-temperature environment for two weeks or longer, to promote sporulation again. To the resultant burdock root powder agar medium having cultured Pseudocercospora fuligena, several milliliters of sterile pure water was dropped, and the surface of the hyphae was rubbed with, for example, a platinum loop or a brush, to obtain a disintegrated hypha-spore mixed suspension.
as §1, with “fungus.” for “fungus. The culture medium container was a 24-well flat-bottom culture plate (Corning Incorporated, trade name: 24 Well Cell Culture Cluster Flat Bottom).”
as §2

[7] = system: Trichoderma asperellum
Source text: as §3
as §1, with “fungus.” for “fungus. The culture medium container was a 24-well flat-bottom culture plate (Corning Incorporated, trade name: 24 Well Cell Culture Cluster Flat Bottom).”

[8] = Comparative Example 1, fludioxonil 133 mg/L
[9] = Example 1, fludioxonil 0.5 mg/L
[10] = Example 2, fludioxonil 1.3 mg/L

N#Cc1c[nH]cc1-c1cccc2c1OC(F)(F)O2 [fludioxonil]
hyphae penetrating the artificial cell wall [1, 8]: not observed | hyphae penetrating the artificial cell wall [1, 9]: had hyphae penetrating the artificial cell wall | hyphae penetrating the artificial cell wall [1, 10]: had hyphae penetrating the artificial cell wall | hyphae penetrating the artificial cell wall [2]: not observed | hyphae penetrating the artificial cell wall [3]: not observed | hyphae penetrating the artificial cell wall [4]: not observed | hyphae penetrating the artificial cell wall [5, 8]: not observed | hyphae penetrating the artificial cell wall [5, 9]: had hyphae penetrating the artificial cell wall | hyphae penetrating the artificial cell wall [5, 10]: had hyphae penetrating the artificial cell wall | hyphae penetrating the artificial cell wall [6, 8]: not observed | hyphae penetrating the artificial cell wall [6, 9]: had hyphae penetrating the artificial cell wall | hyphae penetrating the artificial cell wall [6, 10]: had hyphae penetrating the artificial cell wall | hyphae penetrating the artificial cell wall ([7]; Comparative Example 1, fludioxonil 133 mg/L, 25° C., 72 hours): not observed | effect of excluding Trichoderma asperellum (number of hyphae penetrating the artificial cell walls) ([7]; Comparative Example 2, fludioxonil 0.1 mg/L (1/1000 of the concentration that provides the agricultural chemical effect)): not observed | growth of Trichoderma asperellum (number of hyphae penetrating the artificial cell walls) ([7]; Comparative Example 2, fludioxonil 0.5 mg/L (1/250 of the concentration that provides the agricultural chemical effect)): inhibited
